According to PubChem BioAssay AID2060899 (Molecular Pharmacology Branch, DTP, NCI, 2025):

Tested on: 565726-208-R1-J5-PDC complex spheroids, growth inhibition
Experiment: Anticancer human tumor 565726-208-R1-J5-PDC patient-derived pancreatic adenocarcinoma cell line growth inhibition [RAS]
Settings: for viability, T/C: stronger effect = lower value
Description: RAS pathway inhibitors in Combinations in Complex Spheroids
A high-throughput screen of multi-cell type tumor spheroids was designed to identify active combinations of RAS pathway inhibitors and targeted small molecules. Complex spheroids include a stromal component modeled by human endothelial cells (HUVEC) and fibroblasts modeled by human mesenchymal stem cells (MSCs). The concentration ranges selected for each drug and investigational agent were based upon clinically achievable concentrations if the clinical Cmax of the agent was known.
Compounds. The drugs and investigational agents: abemaciclib (NSC768073), cobimetinib (NSC768068), divarasib (GDC6063, NSC841802), docetaxel (NSC628503), GDC-1971 (RLY-1971, NSC841576), gemcitabine (NSC613327), inavolisib (NSC800729), ipatasertib (NSC767898), KB-0742 (NSC834161), MRTX-1133 (NSC836407), osimertinib (NSC779217), RMC-4630 (NSC839698), RMC-6236 (NSC851965), RMC-6291 (NSC852671), Ro-3306 (NSC812927), sapanisertib (NSC764658), SN-38 (NSC673596), staurosporine (NSC755774), SY5609 (NSC837396), and tovorafenib (DAY101, NSC766906), were obtained from the National Cancer Institute (NCI) Developmental Therapeutics Program Chemical Repository. The FDA-approved anticancer drug set is available from the NCI Developmental Therapeutics Program. […] The stock solutions were prepared in dimethyl sulfoxide (DMSO, Sigma-Aldrich, St. Louis, MO, cat. D2650) at 800-fold the tested concentration and stored at -70 degrees C prior to their use. All drugs and investigational agents were tested over a range starting from a high concentration at or near the clinical Cmax and decreasing in half-log increments. If the clinical Cmax for an agent had not been determined, the highest concentration tested was 10 microM.
Cell Culture. All cells were maintained in an incubator at 37 degrees C and 5% CO2 with 95% humidity. The PDC lines were cultured according to standard operating procedures established by the NCI PDMR. All PDCs were thawed and cultured in Matrigel-coated flasks prepared with a working solution of 1X Ham's F-12 nutrient mix, without supplementation (Invitrogen, Waltham, MA, cat. 11765054), 100 U/mL penicillin-streptomycin (Invitrogen, cat. 15140122), and 2.5% Matrigel (Corning Inc., Corning, NY, cat. 354248) for the first three passages. The 362531-283-R-J2-PDC and 782815-120-R-J1-PDC lines were cultured in 6C/Colon 1B media, which includes advanced DMEM/F-12 (Thermo Fisher Scientific, cat. 12634028), 10 mM HEPES (Thermo Fisher Scientific, cat. 15630080), 1X GlutaMAX supplement (Thermo Fisher Scientific, cat. 35050061), 0.1 mg/mL primocin (InvivoGen, San Diego, CA, cat. ant-pm-2), 10% defined fetal bovine serum, heat inactivated (HyClone Laboratories Inc., Logan, UT, cat. SH30070.03HI), 50% L-WRN conditioned media (ATCC, cat. CRL-3276), 1.25 mM N-Acetyl-L-cysteine (Sigma-Aldrich, cat. A9165), 10 mM nicotinamide (Sigma-Aldrich, cat. N0636), 1X B-27 supplement (Thermo Fisher Scientific, cat. 17504044), 1X N-2 supplement (Thermo Fisher Scientific, cat. 17502048), 50 ng/mL human EGF (Thermo Fisher Scientific, cat. PHG0311), and 10 microM Y-27632 dihydrochloride (Tocris Bioscience, cat. 1254). The K12877-001-R-J1-PDC line was cultured in 6I media, which includes all 6C/Colon 1B media plus 10 ng/mL human FGF-10 (PeproTech, cat. 100-26), 1 ng/mL human FGF-2 (PeproTech, cat. 100-18B), 1 µM prostaglandin E2 (Tocris Bioscience, cat. 2296), […] hydrocortisone (Sigma-Aldrich, cat. H4001), and […] bovine insulin (Sigma-Aldrich, cat. I6634). The K86415-001-R-J1-PDC line was cultured in 6D media, which includes all 6C/Colon 1B media components minus the L-WRN conditioned media. The 485176-168-R4-J1-PDC was cultured in PANC media, which includes all 6C/Colon 1B media plus 100 ng/mL human FGF-10 (PeproTech, cat. 100-26), 500 nM SB-431542 (Selleckchem, cat. S1067), and 10 nM gastrin (Tocris Bioscience, cat. 3006). […]

[1] = curve of first compound, second compound 0.00316 µM
[2] = curve of first compound, second compound 0.01 µM
[3] = curve of first compound, second compound 0.0316 µM
[4] = curve of first compound, second compound 0.1 µM
[5] = curve of first compound, second compound 0.316 µM
[6] = curve of first compound, second compound 1 µM
[7] = second compound 0.00316 µM, first compound 0.0316 µM
[8] = second compound 0.00316 µM, first compound 0.1 µM
[9] = second compound 0.00316 µM, first compound 0.316 µM
[10] = second compound 0.00316 µM, first compound 1 µM
[11] = second compound 0.00316 µM, first compound 3.16 µM
[12] = second compound 0.00316 µM, first compound 10 µM
[13] = second compound 0.01 µM, first compound 0.0316 µM
[14] = second compound 0.01 µM, first compound 0.1 µM
[15] = second compound 0.01 µM, first compound 0.316 µM
[16] = second compound 0.01 µM, first compound 1 µM
[17] = second compound 0.01 µM, first compound 3.16 µM
[18] = second compound 0.01 µM, first compound 10 µM
[19] = second compound 0.0316 µM, first compound 0.0316 µM
[20] = second compound 0.0316 µM, first compound 0.1 µM
[21] = second compound 0.0316 µM, first compound 0.316 µM
[22] = second compound 0.0316 µM, first compound 1 µM
[23] = second compound 0.0316 µM, first compound 3.16 µM
[24] = second compound 0.0316 µM, first compound 10 µM
[25] = second compound 0.1 µM, first compound 0.0316 µM
[26] = second compound 0.1 µM, first compound 0.1 µM
[27] = second compound 0.1 µM, first compound 0.316 µM
[28] = second compound 0.1 µM, first compound 1 µM
[29] = second compound 0.1 µM, first compound 3.16 µM
[30] = second compound 0.1 µM, first compound 10 µM
[31] = second compound 0.316 µM, first compound 0.0316 µM
[32] = second compound 0.316 µM, first compound 0.1 µM
[33] = second compound 0.316 µM, first compound 0.316 µM
[34] = second compound 0.316 µM, first compound 1 µM
[35] = second compound 0.316 µM, first compound 3.16 µM
[36] = second compound 0.316 µM, first compound 10 µM
[37] = second compound 1 µM, first compound 0.0316 µM
[38] = second compound 1 µM, first compound 0.1 µM
[39] = second compound 1 µM, first compound 0.316 µM
[40] = second compound 1 µM, first compound 1 µM
[41] = second compound 1 µM, first compound 3.16 µM
[42] = second compound 1 µM, first compound 10 µM
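Note: spheroids exposed to compounds for seven days before readout.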
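Throughout, for viability, T/C: 100% = DMSO vehicle control viability.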

CC(C)NCC(C(=O)N1CCN(c2ncnc3c2C(C)CC3O)CC1)c1ccc(Cl)cc1 (stereo unspecified) + C=CC(=O)N1CCN(c2nc(OCC3CCCN3C)nc3c(F)c(-c4nc(N)cc(C)c4C(F)(F)F)c(Cl)cc23)C(C)C1
IC50 [1]: > 10 µM | IC50 [2]: > 10 µM | IC50 [3]: > 10 µM | IC50 [4]: > 10 µM | IC50 [5]: > 10 µM | IC50 [6]: > 10 µM | viability, T/C [7]: 90.5% | viability, T/C [8]: 152% | viability, T/C [9]: 89% | viability, T/C [10]: 91% | viability, T/C [11]: 93.3% | viability, T/C [12]: 110% | viability, T/C [13]: 133% | viability, T/C [14]: 153% | viability, T/C [15]: 91% | viability, T/C [16]: 78.3% | viability, T/C [17]: 104% | viability, T/C [18]: 127% | viability, T/C [19]: 125% | viability, T/C [20]: 160% | viability, T/C [21]: 90.2% | viability, T/C [22]: 89.8% | viability, T/C [23]: 93.5% | viability, T/C [24]: 125% | viability, T/C [25]: 176% | viability, T/C [26]: 154% | viability, T/C [27]: 93.1% | viability, T/C [28]: 85.4% | viability, T/C [29]: 80.6% | viability, T/C [30]: 120% | viability, T/C [31]: 147% | viability, T/C [32]: 153% | viability, T/C [33]: 88.5% | viability, T/C [34]: 96.6% | viability, T/C [35]: 73.4% | viability, T/C [36]: 118% | viability, T/C [37]: 175% | viability, T/C [38]: 155% | viability, T/C [39]: 130% | viability, T/C [40]: 95.1% | viability, T/C [41]: 80.7% | viability, T/C [42]: 95.9%

CCn1c(-c2cc(N3CCN(C)CC3)cnc2C(C)OC)c2c3cc(ccc31)-c1csc(n1)CC(NC(=O)C1CC1C)C(=O)N1CCCC(N1)C(=O)OCC(C)(C)C2 (stereo unspecified)
viability, T/C (compound 0.000949 µM): 65% [middle of 8 runs] | viability, T/C (compound 0.003 µM): 55.2% [middle of 8 runs] | viability, T/C (compound 0.00949 µM): 43.7% [middle of 8 runs] | viability, T/C (compound 0.03 µM): 33.3% [middle of 7 runs] | viability, T/C (compound 0.0949 µM): 27.4% [middle of 7 runs] | viability, T/C (compound 0.3 µM): 24.9% [middle of 8 runs] | IC50 (compound alone, run of 07/09/2024): 4 nM [middle of 8 runs]

CC1(O)CCCC1n1c(=O)c(C(F)F)cc2cnc(NC3CCN(S(C)(=O)=O)CC3)nc21 (stereo unspecified) + C=CC(=O)N1CCN(c2nc(OCC3CCCN3C)nc3c(F)c(-c4nc(N)cc(C)c4C(F)(F)F)c(Cl)cc23)C(C)C1
IC50 [1]: 4.25 µM | IC50 [2]: 3.86 µM | IC50 [3]: 1.88 µM | IC50 [4]: 3.18 µM | IC50 [5]: 3.14 µM | IC50 [6]: 3.09 µM | viability, T/C [7]: 84.6% | viability, T/C [8]: 101% | viability, T/C [9]: 69.9% | viability, T/C [10]: 77.8% | viability, T/C [11]: 67.8% | viability, T/C [12]: 7.33% | viability, T/C [13]: 111% | viability, T/C [14]: 116% | viability, T/C [15]: 71.8% | viability, T/C [16]: 78.2% | viability, T/C [17]: 73.2% | viability, T/C [18]: 8.22% | viability, T/C [19]: 122% | viability, T/C [20]: 119% | viability, T/C [21]: 61.8% | viability, T/C [22]: 68.8% | viability, T/C [23]: 59.5% | viability, T/C [24]: 4.81% | viability, T/C [25]: 117% | viability, T/C [26]: 116% | viability, T/C [27]: 63.8% | viability, T/C [28]: 73.9% | viability, T/C [29]: 71.2% | viability, T/C [30]: 8.5% | viability, T/C [31]: 111% | viability, T/C [32]: 116% | viability, T/C [33]: 63% | viability, T/C [34]: 77.1% | viability, T/C [35]: 64.3% | viability, T/C [36]: 7.59% | viability, T/C [37]: 122% | viability, T/C [38]: 112% | viability, T/C [39]: 73.5% | viability, T/C [40]: 89% | viability, T/C [41]: 53% | viability, T/C [42]: 6.97%
